Laboratory results reported in US20230293488A1, “COMPOSITIONS AND METHODS OF USE OF ANTIBACTERIAL DRUG COMBINATIONS” (priority 2015, published 2023).
Several values for one entry are separate records, joined by “and”; a condition that tells them apart may be missing. Equal values may be shown once. Entries after “also recorded” stand apart in the source; their conditions may differ. Read-outs that look alike come from different tables or passages of the source.

Key:
allosteric site of PBP2a = allosteric site of PBP2a (Staphylococcus aureus, UniProt P07944); test: Binding to the allosteric site of PBP2a
Chain of allosteric site of PBP2a (P07944 whole entry): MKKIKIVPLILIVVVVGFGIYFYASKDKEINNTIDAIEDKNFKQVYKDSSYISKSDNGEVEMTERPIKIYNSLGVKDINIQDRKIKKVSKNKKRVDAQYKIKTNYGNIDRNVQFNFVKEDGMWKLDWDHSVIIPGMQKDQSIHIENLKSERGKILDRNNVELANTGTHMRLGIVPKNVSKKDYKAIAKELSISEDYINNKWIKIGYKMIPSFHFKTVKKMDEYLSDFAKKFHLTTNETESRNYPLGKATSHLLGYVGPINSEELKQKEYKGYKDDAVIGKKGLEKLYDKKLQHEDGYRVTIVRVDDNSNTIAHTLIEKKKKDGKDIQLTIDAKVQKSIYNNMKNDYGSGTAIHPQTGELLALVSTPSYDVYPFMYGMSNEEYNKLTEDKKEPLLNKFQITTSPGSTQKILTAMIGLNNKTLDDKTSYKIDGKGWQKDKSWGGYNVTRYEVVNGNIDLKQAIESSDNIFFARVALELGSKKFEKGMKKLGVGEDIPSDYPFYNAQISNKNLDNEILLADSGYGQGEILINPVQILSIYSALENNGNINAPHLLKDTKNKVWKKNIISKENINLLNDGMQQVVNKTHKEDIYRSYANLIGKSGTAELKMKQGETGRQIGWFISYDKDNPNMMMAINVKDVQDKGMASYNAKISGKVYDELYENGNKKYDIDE

[1] = in vivo, iv; cited from earlier work
MRSA N315 = test: Neutropenic mouse peritonitis model of MRSA infection; type: in vivo, mice; settings: for Result (Alive/Dead) / Result (survivors per group) / Bacterial detection results: Plated: 67 mg/kg (of each) every 8 hrs SC; for Result (Alive/Dead) / Result (survivors per group): 6 doses; for Result (Alive/Dead) / Bacterial detection results: Plated: one line per mouse; for Result (survivors per group): six days post-infection; for Bacterial detection results: Plated: cheek bleed 11 h post-infection, ~100 uL blood plated, 67 mg/kg; for mice that succumbed to the infection: most within 48 h, 67 mg/kg (of each)
Source text: In vivo mouse model of MRSA infection: Animals. Outbred ICR female mice (6-8 weeks old, 17-25 g body weight; Harlan Laboratories, Inc., Indianapolis, IN, USA) were used. Mice were given Teklad 2019 Extruded Rodent Diet (Harlan Laboratories, Inc., Indianapolis, IN, USA) and water ad libitum. Mice were maintained in polycarbonate shoebox cages containing corncob (The Andersons, Inc., Maumee, OH, USA) and Alpha-dri (Shepherd Specialty Papers, Inc., Richland, MI, USA) bedding under 12-h light/12-h dark cycle at 22±1° C. All procedures involving animals were approved by the University of Notre Dame Institutional Animal Care and Use Committee.
Neutropenic mouse peritonitis model of MRSA infection. Doses of cyclophosphamide (100 μl of 50 mg/ml in 0.9% saline corresponding to 200 mg/kg; Alfa Aesar, Ward Hill, MA, USA) were given intraperitoneally (IP) at 4 days and 1 day prior to infection. The S. strain N315 was streaked onto Brain-Heart Infusion (BHI; Becton Dickson and Company, Sparks, MD, USA) agar and grown overnight at 36° C. The MRSA N315 bacterial inoculum was adjusted to approximately 1×10^8 CFU/ml (corresponding to OD540=0.5), then diluted to give 2×10^7CFU/ml. A 10% porcine mucin (Sigma-Aldrich, St. Louis, MO, USA) suspension was prepared and adjusted to pH 7. Immediately prior to infection, the bacterial inocula were diluted 1:1 with 10% mucin to a final concentration of 1×10^7CFU/ml in 5% mucin. The mice were then infected IP with 0.5 ml of this inoculum. In vivo dosing of compounds in mice was compared with mean or range peak human plasma concentrations of studied β-lactams^44,46,47,62,63.
Antibiotic preparation. Meropenem was obtained from AK Scientific, Inc. (Union City, CA, USA), piperacillin and tazobactam were obtained from Sigma-Aldrich Co. (St. Louis, MO, USA). Linezolid (CAS 165800-03-3) was obtained from AmplaChem (Carmel, IN, USA). Antibiotics were dissolved at a concentration of 16.67 mg/ml in 30% DMSO/30% propylene glycol/40% water. Linezolid was used as positive control and was prepared at 7.5 mg/ml. Vehicle (30% DMSO/30% propylene glycol/40% water) was included as negative control. The dosing formulations were sterilized by passing through 0.2 μm filter prior to injection.
Bacterial isolation from blood. Blood samples were checked for bacterial growth by plating and liquid culture. Whole blood (100 μl, three samples per group) was spread onto Brain-Heart Infusion (BHI) agar plates and incubated at 36° C. overnight. Colonies were counted and three colonies were selected, grown overnight in liquid BHI culture at 36° C., then mixed 1:1 with 30% LB-glycerol and stored at −80° C. The remaining three blood samples of each group (50 μl) was added to 5 ml BHI broth and incubated overnight at 36° C. When growth was noted, cultures were mixed 1:1 with 30% LB-glycerol and stored at −80° C.
Statistical Analyses: Data for minimal inhibitory concentrations (MICs) are derived from triplicate measurements. Adaptation data are taken from two replicate experiments for each drug combination condition. Data for qRT-PCR expression profiling are derived from three replicate experiments taken from three biological replicates each, with standard error of measurement calculated. Mice were treated in groups of six, and growth determination of bacteria determined via plate and broth culture in triplicate. Fisher's Exact test with Bonferroni correction was used for 8 independent tests (comparing each treatment to 610 vehicle).

C[C@@H](O)[C@H]1C(=O)N2C(C(=O)O)=C(S[C@@H]3CN[C@H](C(=O)N(C)C)C3)[C@H](C)[C@H]12 [Meropenem]
Kd (allosteric site of PBP2a; read-out: dissociation constant (Kd)): 270 ± 80 µM | Kd (allosteric site of PBP2a; read-out: dissociation constant (Kd), equivalent (converted)): 271 µM | mean peak plasma concentration [1]: 112 µg/mL | Result (Alive/Dead) (MRSA N315): Alive (4×) and Dead (2×) | Result (survivors per group) (MRSA N315): 4/6 | Bacterial detection results: Plated (MRSA N315): Plated: 11 colonies; also recorded: Plated: 3 colonies | mice that succumbed to the infection (MRSA N315): several mice

CCN1CCN(C(=O)N[C@@H](C(=O)N[C@@H]2C(=O)N3[C@@H]2SC(C)(C)[C@@H]3C(=O)O)c2ccccc2)C(=O)C1=O [Piperacillin]
Result (Alive/Dead) (MRSA N315): Dead | Result (survivors per group) (MRSA N315): 0/6 | Bacterial detection results: Plated (MRSA N315): Plated: 40 colonies | mice that succumbed to the infection (MRSA N315): all mice
